US12077503B2, “Substituted cyclic amides and their use as herbicides” (FMC CORPORATION, priority 2015, dated 2024)

How the values were obtained:
Experiment in all cases: Test E preemergence
Format in all cases: in vivo
[1] = tested on: Kochia (Kochia scoparia); details: scale 0 to 100
In short: (§1)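 Compound in non-phytotoxic solvent with surfactant is applied preemergence to silt loam soil after sowing, or postemergence to plants 2 to 18 cm tall in peat-based medium. Plants grow in a greenhouse for 14 to 21 d. Each species is then compared with controls and scored visually, 0 (no effect) to 100 (complete control).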

[2] = tested on: Panicum, fall (fall Panicum, Panicum dichotomiflorum); details: scale 0 to 100
In short: as §1

[3] = tested on: arrowleaf Sida (Sida rhombifolia); details: scale 0 to 100
In short: as §1

[4] = tested on: barnyardgrass (Echinochloa crus-galli); details: scale 0 to 100
In short: as §1

[5] = tested on: beggarticks (hairy beggarticks, Bidens pilosa); details: scale 0 to 100
In short: as §1

[6] = tested on: crabgrass, Brazil (Brazilian crabgrass, Digitaria horizontalis); details: scale 0 to 100
In short: as §1

[7] = tested on: crabgrass, large (large crabgrass, Digitaria sangumnalis); details: scale 0 to 100
In short: as §1

[8] = tested on: field bindweed (Convolvulus arvensis); details: scale 0 to 100
In short: as §1

[9] = tested on: foxtail, green (green foxtail, Setaria viridis); details: scale 0 to 100
In short: as §1

[10] = tested on: goosegrass (Eleusine indica); details: scale 0 to 100
In short: as §1

[11] = tested on: horseweed (Conyza canadensis); details: 31 g ai/ha, scale 0 to 100
In short: as §1

[12] = tested on: morningglory (Ipomoea coccinea); details: scale 0 to 100
In short: as §1

[13] = tested on: nightshade (eastern black nightshade, Solanum ptycanthum); details: scale 0 to 100
In short: as §1

[14] = tested on: nutsedge, yellow (yellow nutsedge, Cyperus esculentus); details: scale 0 to 100
In short: as §1

[15] = tested on: pigweed, palmer (palmer pigweed, Amaranthus palmeri); details: scale 0 to 100
In short: as §1

[16] = tested on: ragweed (common ragweed, Ambrosia elatior); details: scale 0 to 100
In short: as §1

[17] = tested on: ryegrass, Italian (Italian ryegrass, Lolium multiflorum); details: scale 0 to 100
In short: as §1

[18] = tested on: sandbur (southern sandbur, Cenchrus echinatus); details: scale 0 to 100
In short: as §1

[19] = tested on: surinam grass (Brachiaria decumbens); details: scale 0 to 100
In short: as §1

[20] = tested on: velvetleaf (Abutilon theophrasti); details: scale 0 to 100
In short: as §1

[21] = tested on: waterhemp (common waterhemp, Amaranthus rudis); details: scale 0 to 100
In short: as §1

SMILES: CN1CC(c2cccc(C(F)(F)F)c2)C(C(=O)Nc2ccccc2S(C)(=O)=O)C1=O (stereo not drawn) [Compound 637]
- Plant response rating: Kochia ([1]; 31 g ai/ha): 0
- Plant response rating: Kochia ([1]; 62 g ai/ha): 40
- Plant response rating: Kochia ([1]; 125 g ai/ha): 90
- Plant response rating: Kochia ([1]; 250 g ai/ha): 90
- Plant response rating: Panicum, Fall ([2]; 31 g ai/ha): 0
- Plant response rating: Panicum, Fall ([2]; 62 g ai/ha): 35
- Plant response rating: Panicum, Fall ([2]; 125 g ai/ha): 90
- Plant response rating: Panicum, Fall ([2]; 250 g ai/ha): 95
- Plant response rating: Arrowleaf Sida ([3]; 31 g ai/ha): 0
- Plant response rating: Arrowleaf Sida ([3]; 62 g ai/ha): 0
- Plant response rating: Arrowleaf Sida ([3]; 125 g ai/ha): 0
- Plant response rating: Arrowleaf Sida ([3]; 250 g ai/ha): 0
- Plant response rating: Barnyardgrass ([4]; 31 g ai/ha): 85
- Plant response rating: Barnyardgrass ([4]; 62 g ai/ha): 70
- Plant response rating: Barnyardgrass ([4]; 125 g ai/ha): 80
- Plant response rating: Barnyardgrass ([4]; 250 g ai/ha): 95
- Plant response rating: Beggarticks ([5]; 31 g ai/ha): 0
- Plant response rating: Beggarticks ([5]; 62 g ai/ha): 0
- Plant response rating: Beggarticks ([5]; 125 g ai/ha): 0
- Plant response rating: Beggarticks ([5]; 250 g ai/ha): 0
- Plant response rating: Crabgrass, Brazil ([6]; 31 g ai/ha): 75
- Plant response rating: Crabgrass, Brazil ([6]; 62 g ai/ha): 85
- Plant response rating: Crabgrass, Brazil ([6]; 125 g ai/ha): 98
- Plant response rating: Crabgrass, Brazil ([6]; 250 g ai/ha): 95
- Plant response rating: Crabgrass, Large ([7]; 31 g ai/ha): 90
- Plant response rating: Crabgrass, Large ([7]; 62 g ai/ha): 95
- Plant response rating: Crabgrass, Large ([7]; 125 g ai/ha): 98
- Plant response rating: Crabgrass, Large ([7]; 250 g ai/ha): 98
- Plant response rating: Field Bindweed ([8]; 31 g ai/ha): 0
- Plant response rating: Field Bindweed ([8]; 62 g ai/ha): 0
- Plant response rating: Field Bindweed ([8]; 125 g ai/ha): 0
- Plant response rating: Field Bindweed ([8]; 250 g ai/ha): 35
- Plant response rating: Foxtail, Green ([9]; 31 g ai/ha): 65
- Plant response rating: Foxtail, Green ([9]; 62 g ai/ha): 75
- Plant response rating: Foxtail, Green ([9]; 125 g ai/ha): 95
- Plant response rating: Foxtail, Green ([9]; 250 g ai/ha): 98
- Plant response rating: Goosegrass ([10]; 31 g ai/ha): 0
- Plant response rating: Goosegrass ([10]; 62 g ai/ha): 0
- Plant response rating: Goosegrass ([10]; 125 g ai/ha): 65
- Plant response rating: Goosegrass ([10]; 250 g ai/ha): 90
- Plant response rating: Horseweed [11]: 0
- Plant response rating: Morningglory ([12]; 31 g ai/ha): 0
- Plant response rating: Morningglory ([12]; 62 g ai/ha): 0
- Plant response rating: Morningglory ([12]; 125 g ai/ha): 35
- Plant response rating: Morningglory ([12]; 250 g ai/ha): 35
- Plant response rating: Nightshade ([13]; 31 g ai/ha): 0
- Plant response rating: Nightshade ([13]; 62 g ai/ha): 15
- Plant response rating: Nightshade ([13]; 125 g ai/ha): 25
- Plant response rating: Nightshade ([13]; 250 g ai/ha): 40
- Plant response rating: Nutsedge, Yellow ([14]; 31 g ai/ha): 0
- Plant response rating: Nutsedge, Yellow ([14]; 62 g ai/ha): 0
- Plant response rating: Nutsedge, Yellow ([14]; 125 g ai/ha): 0
- Plant response rating: Nutsedge, Yellow ([14]; 250 g ai/ha): 35
- Plant response rating: Pigweed, Palmer ([15]; 31 g ai/ha): 0
- Plant response rating: Pigweed, Palmer ([15]; 62 g ai/ha): 0
- Plant response rating: Pigweed, Palmer ([15]; 125 g ai/ha): 0
- Plant response rating: Pigweed, Palmer ([15]; 250 g ai/ha): 65
- Plant response rating: Ragweed ([16]; 31 g ai/ha): 0
- Plant response rating: Ragweed ([16]; 62 g ai/ha): 0
- Plant response rating: Ragweed ([16]; 125 g ai/ha): 20
- Plant response rating: Ragweed ([16]; 250 g ai/ha): 85
- Plant response rating: Ryegrass, Italian ([17]; 31 g ai/ha): 0
- Plant response rating: Ryegrass, Italian ([17]; 62 g ai/ha): 50
- Plant response rating: Ryegrass, Italian ([17]; 125 g ai/ha): 35
- Plant response rating: Ryegrass, Italian ([17]; 250 g ai/ha): 35
- Plant response rating: Sandbur ([18]; 31 g ai/ha): 0
- Plant response rating: Sandbur ([18]; 62 g ai/ha): 35
- Plant response rating: Sandbur ([18]; 125 g ai/ha): 90
- Plant response rating: Sandbur ([18]; 250 g ai/ha): 90
- Plant response rating: Surinam Grass ([19]; 31 g ai/ha): 10
- Plant response rating: Surinam Grass ([19]; 62 g ai/ha): 50
- Plant response rating: Surinam Grass ([19]; 125 g ai/ha): 75
- Plant response rating: Surinam Grass ([19]; 250 g ai/ha): 90
- Plant response rating: Velvetleaf ([20]; 31 g ai/ha): 0
- Plant response rating: Velvetleaf ([20]; 62 g ai/ha): 0
- Plant response rating: Velvetleaf ([20]; 125 g ai/ha): 30
- Plant response rating: Velvetleaf ([20]; 250 g ai/ha): 35
- Plant response rating: Waterhemp ([21]; 31 g ai/ha): 50
- Plant response rating: Waterhemp ([21]; 62 g ai/ha): 40
- Plant response rating: Waterhemp ([21]; 125 g ai/ha): 65
- Plant response rating: Waterhemp ([21]; 250 g ai/ha): 85
